Reference: patent US12427135B2 (priority 2019, dated 2025)

Tests used:
RTA [1] = target: T1, RTA (Ricinus communis (Castor bean), UniProt P02879); assay type: binding
RTA [2] = target: T1, RTA; experiment: biochemical; assay type: biochemical; settings: for inhibition at 50 µM: read-out: Percent inhibition at 50 μM
Stx2A1 [3] = target: T2, Stx2A1 (Escherichia phage 933W (Bacteriophage 933W), UniProt P09385); assay type: binding
Stx2A1 [4] = target: T2, Stx2A1; experiment: biochemical; assay type: biochemical
Stx2a holotoxin = Stx2a holotoxin (Escherichia phage 933W (Bacteriophage 933W), UniProt P09385); experiment: cell-based; assay type: cell-based
[5] = read-out: % inhibition Stx2A1 in yeast ribosome
[6] = Vero, read-out: % Inhibition Stx2a depurination in Vero cell

T2 sequence (P09385 23-272 limits assumed): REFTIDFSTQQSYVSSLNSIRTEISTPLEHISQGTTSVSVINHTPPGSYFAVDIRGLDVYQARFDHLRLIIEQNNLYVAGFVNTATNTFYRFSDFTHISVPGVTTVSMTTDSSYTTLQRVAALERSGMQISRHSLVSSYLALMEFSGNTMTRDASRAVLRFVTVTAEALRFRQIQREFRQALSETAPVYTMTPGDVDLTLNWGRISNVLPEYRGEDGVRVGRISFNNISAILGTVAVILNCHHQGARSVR
Chain of Stx2a holotoxin (P09385 23-319 limits assumed): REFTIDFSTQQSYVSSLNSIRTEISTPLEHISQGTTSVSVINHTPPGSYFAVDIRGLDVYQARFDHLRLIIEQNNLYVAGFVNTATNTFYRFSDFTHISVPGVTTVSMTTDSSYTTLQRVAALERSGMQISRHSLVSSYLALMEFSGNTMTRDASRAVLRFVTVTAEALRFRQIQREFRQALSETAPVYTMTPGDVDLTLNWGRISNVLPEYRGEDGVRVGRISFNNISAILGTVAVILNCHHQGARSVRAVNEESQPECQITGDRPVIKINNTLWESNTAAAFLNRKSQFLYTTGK

SMILES: Cc1cccc(O)c1-c1ccc(C(=O)O)s1 [RU-NT-113]
- Kd (RTA [1]): 31 µM
- inhibition at 50 µM (RTA [2]): 69%

SMILES: Cc1ccccc1-c1ccc(C(=O)O)s1 [RU-NT-070]
- Kd (RTA [1]): 72 µM
- IC50 (RTA [2]): 19 µM

SMILES: O=C(O)c1csc(-c2cccc(Cl)c2Cl)n1
- Kd (Stx2A1 [3]): 0.487 mM
- inhibition at 100 µM (Stx2A1 [4]; [5]): 82%
- inhibition at 200 µM (Stx2A1 [4]; [5]): 62%

SMILES: COc1cccc(C)c1-c1ccc(C(=O)O)s1 [RU-NT-111]
- Kd (RTA [1]): 51 µM
- inhibition at 50 µM (RTA [2]): 66%

SMILES: O=C(O)c1cc2c(s1)-c1ccccc1CC2 [PD00589, reference compound]
- inhibitory activity against Stx2A/Stx2A1 depurination in vitro (Stx2A1 [4]): dose-dependent inhibition
- protection against depurination by Stx2a holotoxin in Vero cells (Stx2a holotoxin): protected Vero cells against depurination

SMILES: Cc1cccc(F)c1-c1ccc(C(=O)O)s1 [RU-NT-110]
- Kd (RTA [1]): 93 µM
- inhibition at 50 µM (RTA [2]): 61%

SMILES: O=C(O)c1csc(-c2cccc(Cl)c2)n1
- Kd (Stx2A1 [3]): 0.579 mM
- inhibition at 100 µM (Stx2A1 [4]; [5]): 83%
- inhibition at 200 µM (Stx2A1 [4]; [5]): 91%

SMILES: O=C(O)c1cc2c(s1)-c1ccccc1CC2 [drawing 373]
- Kd (Stx2A1 [3]): 0.629 mM
- inhibition at 50 µM (Stx2A1 [4]; [5]): 45%
- inhibition at 100 µM (Stx2A1 [4]; [5]): 51%
- inhibition at 200 µM (Stx2A1 [4]; [5]): 80%
- inhibition at 250 µM (Stx2a holotoxin; [6]): 18%
- inhibition at 500 µM (Stx2a holotoxin; [6]): 36%

SMILES: Cc1ccc(-c2ccc(C(=O)O)o2)cc1
- Kd (Stx2A1 [3]): 0.606 mM
- inhibition at 100 µM (Stx2A1 [4]; [5]): 64%
- inhibition at 200 µM (Stx2A1 [4]; [5]): 70%

SMILES: O=C(O)c1ccc(-c2ccc(Cl)cc2)o1
- Kd (Stx2A1 [3]): 0.575 mM
- IC50 (Stx2A1 [4]): 194 µM

SMILES: Cc1cc(C)c(-c2ccc(C(=O)O)s2)c(C)c1 [RU-NT-075]
- inhibition at 50 µM (RTA [2]): 45%

SMILES: O=C(O)c1ccc(-c2ccccc2)s1 [CC10501, 5-phenylthiophene-2-carboxylic acid]
- binding in the binding level screen (RTA [1]): bound RTA better than the positive controls
- IC50 fold weaker than CC70601 (RTA [2]): 5.6 fold

SMILES: O=C(O)c1ccc(-c2cccc3c2OCC3)s1 [RU-NT-105]
- Kd (RTA [1]): 1180 ± 193 µM
- inhibition at 100 µM (RTA [2]; read-out: Percent inhibition at 100 μM): 54 ± 7%

SMILES: O=C(O)c1ccc(Cc2cccs2)cc1 [CC70601, 4-(thien-2-ylmethyl) benzoic acid]
- binding in the binding level screen (RTA [1]): bound RTA better than the positive controls
